According to patent publication US20070218460A1, “Method of Estimating Toxicity of Drug” (TAKEDA PHARMACEUTICAL COMPANY LIMITED, priority 2003, published 2007):

How the values were obtained:
HepG2 cells [1] = assay: Electron-microscopic examination of PLsis induction potential (myelin-like structure)
mgc4171 = assay: Real-time quantitative PCR of PLsis marker gene expression; format: cell-based, human; settings: HepG2 cells, 24 hr exposure, relative value, control group = 1.0, GAPDH internal standard, n=3
Outline: (§1)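 Steps: purify total RNA from cells; synthesise cDNA; run TaqMan PCR, 40 cycles (95 °C 15 sec / 60 °C 1 min) with 200 nM primers and probe; correct to GAPDH internal standard; report change vs control, significance by t-test (n=3).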

serpina3 = assay: as above; format: cell-based, human; settings: HepG2 cells, 24 hr exposure, relative value, control group = 1.0, GAPDH internal standard, n=3
Outline: as §1

kiaa1001 = assay: as above; format: cell-based, human; settings: HepG2 cells, 24 hr exposure, relative value, control group = 1.0, GAPDH internal standard, n=3
Outline: as §1

lss = assay: as above; format: cell-based, human; settings: HepG2 cells, 24 hr exposure, relative value, control group = 1.0, GAPDH internal standard, n=3
Outline: as §1

slc2a3 = assay: as above; format: cell-based, human; settings: HepG2 cells, 24 hr exposure, relative value, control group = 1.0, GAPDH internal standard, n=3
Outline: as §1

asah1 = assay: as above; format: cell-based, human; settings: HepG2 cells, 24 hr exposure, relative value, control group = 1.0, GAPDH internal standard, n=3
Outline: as §1

nr0b2 = assay: as above; format: cell-based, human; settings: HepG2 cells, 24 hr exposure, relative value, control group = 1.0, GAPDH internal standard, n=3
Outline: as §1

flj22362 = assay: as above; format: cell-based, human; settings: HepG2 cells, 24 hr exposure, relative value, control group = 1.0, GAPDH internal standard, n=3
Outline: as §1

tagln = assay: as above; format: cell-based, human; settings: HepG2 cells, 24 hr exposure, relative value, control group = 1.0, GAPDH internal standard, n=3
Outline: as §1

hpn = assay: as above; format: cell-based, human; settings: HepG2 cells, 24 hr exposure, relative value, control group = 1.0, GAPDH internal standard, n=3
Outline: as §1

fabp1 = assay: as above; format: cell-based, human; settings: HepG2 cells, 24 hr exposure, relative value, control group = 1.0, GAPDH internal standard, n=3
Outline: as §1

depp = assay: as above; format: cell-based, human; settings: HepG2 cells, 24 hr exposure, relative value, control group = 1.0, GAPDH internal standard, n=3
Outline: as §1

HepG2 cells [2] = assay: Highest concentration at which cells were viable after 72 hr exposure; format: cell-based, human

SMILES | frequency of appearance of myelin-like structure (HepG2 cells [1]) | expression variation rate mgc4171 (mgc4171) | expression variation rate serpina3 (serpina3) | expression variation rate kiaa1001 (kiaa1001) | expression variation rate lss (lss) | expression variation rate slc2a3 (slc2a3) | expression variation rate asah1 (asah1) | expression variation rate nr0b2 (nr0b2) | expression variation rate flj22362 (flj22362) | expression variation rate tagln (tagln) | expression variation rate hpn (hpn) | expression variation rate fabp1 (fabp1) | expression variation rate depp (depp) | addition concentration (highest concentration at which cells survived after 72 hr of culture) (HepG2 cells [2]) [µmol/L]
CNS(=O)(=O)Cc1ccc2[nH]cc(CCN(C)C)c2c1 [sumatriptan] | − | 0.99 | 0.95 | 1.34 | 1.23 | 0.99 | 1.35 | 0.63 | 1.26 | 1.06 | 1.16 | 1.01 | 1.05 | 25
CC/C(=C(\c1ccccc1)c1ccc(OCCN(C)C)cc1)c1ccccc1 [tamoxifen] | ++ | 1.60 | 2.12 | 1.85 | 3.01 | 0.24 | 4.50 | 2.56 | 1.53 | 0.27 | 2.19 | 1.90 | 2.02 | 8.3
CSc1ccc2c(c1)N(CCC1CCCCN1C)c1ccccc1S2 (centres unmarked) [thioridazine] | + | 1.32 | 2.46 | 5.79 | 2.03 | 0.38 | 1.36 | 0.77 | 1.57 | 0.46 | 2.85 | 5.07 | 2.02 | 8.3
CN(C)C/C=C(/c1ccc(Br)cc1)c1cccnc1 [zimelidine] | + | 1.12 | 1.95 | 2.24 | 1.05 | 0.70 | 2.91 | 1.33 | 1.71 | 0.59 | 1.74 | 1.42 | 2.67 | 25
